Laboratory results published in US9457018B2, “Method for combating adverse effects arising from antipsychotic treatment” (Saniona A/S, priority 2008, dated 2016).

Test: Olanzapine-induced weight gain in a rat model of antipsychotic drug induced obesity (three weeks study)
Format: in vivo, Female Sprague-Dawley (SPRD) rats
Details: tesofensine 2.0 mg/kg s.c. co-treatment with olanzapine 2.0 mg/kg p.o. from day 15, for 7 days, female SPRD rats
Method: Female Sprague-Dawley (SPRD) rats were placed on 10% fat kcal futter. The rats were tagged subcutaneously with a microship in the neck and placed in an automatized food intake monitoring system. […] Co-administration of vehicle or tesofensine continued for 7 days in total. Body weight and food intake was measured on a daily basis, and body weight gain and cumulative food intake was calculated. Data were evaluated using a two-way ANOVA with Bonferroni's post-hoc test (daily body weight gain and food intake) or a one-way ANOVA with Tukey's post-hoc test.

## CCOC[C@@H]1[C@@H](c2ccc(Cl)c(Cl)c2)C[C@@H]2CC[C@H]1N2C [tesofensine, (1R,2R,3S,5S)-3-(3,4-dichlorophenyl)-2-(ethoxymethyl)-8-methyl-8-azabicyclo[3.2.1]octane]
  effect on hypophagic response to olanzapine (food intake): completely prevented
  effect on olanzapine-induced body weight gain: completely prevented
Listed as Tesofensine
  effect on hypophagic response to olanzapine (food intake): prevents
  effect on olanzapine-induced body weight gain: prevents
